Laboratory results published in patent US4551450A, “Rifamycin hydrazones, pharmaceutical compositions containing them and their use” (Ciba-Geigy Corporation, priority 1984, dated 1985).
In brackets after ≈: the same amount, converted by molar mass. Read-outs that look alike come from different tables or passages of the source.

Experiments:
[1] = Pharmacokinetics in rats; assay type: in vivo; settings: for half-life / Cmax: rat; for half-life: in vivo, read-out: t/2 (half-life period of excretion) (converted); for Cmax / Cmax (highest concentration of the active ingredient in the blood plasma): blood plasma; for Cmax: read-out: Cmax (highest concentration of the active ingredient in the blood plasma)
Source text: (§1) (5) Half-life period of excretion (in hours).
(§2) (6) Highest concentration of the active ingredient in the blood plasma.

[2] = test system: Mycobacterium tuberculosis TB H3 Rv; assay: Antituberculotic action, minimum inhibitory concentration in a plate test in vitro; assay type: cell-based; settings: M. tuberculosis TB H3 Rv; for MIC: Mycobacterium tuberculosis, TBH3RV, read-out: Antituberculotic action, MIC (minimum inhibitory concentration), plate test in vitro; for Antituberculotic action, MIC (minimum inhibitory concentration): plate test in vitro
Source text: (§3) (2) Test organism: Mycobacterium tuberculosis TB H3 Rv
(3) Minimum inhibitory concentration in a plate test in vitro.

[3] = Pharmacokinetics in mice; assay type: in vivo; settings: for half-life / Cmax: mouse; for half-life: read-out: t/2 (half-life period of excretion) (converted); for Cmax / Cmax (highest concentration of the active ingredient in the blood plasma): blood plasma; for Cmax: read-out: Cmax (highest concentration of the active ingredient in the blood plasma)
Source text: as §1, §2

[4] = test system: Mycobacterium tuberculosis TB H3 Rv; assay: Antituberculotic action, in vivo test (mice), administration p.o.; parameters: species or system Mycobacterium tuberculosis; mice; settings: for ED50: Mycobacterium tuberculosis, TBH3RV, po
Source text: as §3
(4) In vivo test (mice); administration p.o.

[5] = prior art statement, in some cases; cited from earlier work
[6] = test system: tuberculosis infections; settings: prior art, U.S. Pat. No. 3,342,810; cited from earlier work
[7] = in vivo, mice, p.o., read-out: Antituberculotic action, ED50

For CO[C@H]1/C=C/O[C@@]2(C)Oc3c(C)c(O)c4c(O)c(c(C=NN5CCN6CCCC6C5)c(O)c4c3C2=O)NC(=O)/C(C)=C\C=C\[C@H](C)[C@H](O)[C@@H](C)[C@@H](O)[C@@H](C)[C@H](OC(C)=O)[C@@H]1C (some centres unmarked) [Example 2, hydrazone of 3-formylrifamycin SV with 3-aminoperhydropyrrolo[1,2-a]pyrazine], the half-life [1] was 792 min, the Cmax ([1]; plasma) was 11600 ng/mL and the MIC [2] was 0.1 µg/mL (≈ 0.118 µM). For the same compound, the half-life ([3]; in vivo) was 546 min, the Cmax ([3]; plasma) was 57700 ng/mL and the ED50 [4, 7] was 2.5 mg/kg.

In the case of COC1C=COC2(C)Oc3c(C)c(O)c4c(O)c(c(C=NN5CC6CCCCN6CC5C)c(O)c4c3C2=O)NC(=O)C(C)=CC=CC(C)C(O)C(C)C(O)C(C)C(OC(C)=O)C1C (single isomer, unassigned) [Example 5 Isomer D, hydrazone of 3-formylrifamycin SV with 3-amino-2-methylperhydro-1H-pyrido[1,2-a]pyrazine], the “Antituberculotic action, MIC (minimum inhibitory concentration)” value ([2]; listed as 5 Isomer D) was 0.06 µg/mL, the “Cmax (highest concentration of the active ingredient in the blood plasma)” value ([3]; listed as 5 Isomer D) was 33.6 µg/mL and the “t/2 (half-life period of excretion)” value ([3]; listed as 5 Isomer D) was 25.1 h. The “Antituberculotic action, ED50” value ([4]; in vivo, mice, p.o., listed as 5 Isomer D) was 3 mg/kg.

CO[C@H]1/C=C/O[C@@]2(C)Oc3c(C)c(O)c4c(O)c(c(C=NN5CCN6c7ccccc7CCC6C5)c(O)c4c3C2=O)NC(=O)/C(C)=C\C=C\[C@H](C)[C@H](O)[C@@H](C)[C@@H](O)[C@@H](C)[C@H](OC(C)=O)[C@@H]1C (some centres unmarked) [Example 7, hydrazone of 3-formylrifamycin SV with 3-amino-2,3,4,4a,5,6-hexahydro-1H-pyrazino[1,2-a]quinoline] showed an MIC [2] of 0.06 µg/mL (≈ 0.0659 µM), a half-life ([3]; in vivo) of 1930 min and a Cmax ([3]; plasma) of 24000 ng/mL. The ED50 [4, 7] was 4.5 mg/kg.

In the case of CO[C@H]1/C=C/O[C@@]2(C)Oc3c(C)c(O)c4c(O)c(c(C=NN5CCN6CCSCC6C5)c(O)c4c3C2=O)NC(=O)/C(C)=C\C=C\[C@H](C)[C@H](O)[C@@H](C)[C@@H](O)[C@@H](C)[C@H](OC(C)=O)[C@@H]1C (some centres unmarked) [Example 8, hydrazone of 3-formylrifamycin SV with 6-aminoperhydropyrazolo[2,1-c]-p-thiazine], the MIC [2] was 0.2 µg/mL (≈ 0.227 µM), the half-life ([3]; in vivo) was 534 min and the Cmax ([3]; plasma) was 72000 ng/mL. For the same compound, the ED50 [4, 7] was 8 mg/kg.

Work on CO[C@H]1/C=C/O[C@@]2(C)Oc3c(C)c(O)c4c(O)c(c(C=NN5CCN6C(C)CCCC6C5)c(O)c4c3C2=O)NC(=O)/C(C)=C\C=C\[C@H](C)[C@H](O)[C@@H](C)[C@@H](O)[C@@H](C)[C@H](OC(C)=O)[C@@H]1C (some centres unmarked) [Example 3, hydrazone of 3-formylrifamycin SV with 3-amino-8-methylperhydro-1H-pyrido[1,2-a]pyrazine] yielded an MIC [2] of 0.4 µg/mL (≈ 0.456 µM), a half-life ([3]; in vivo) of 840 min and a Cmax ([3]; plasma) of 22600 ng/mL. It also gave an ED50 ([4]; read-out: Antituberculotic action, ED50, in vivo, mice, p.o.) of 1 mg/kg.

In the case of CO[C@H]1/C=C/O[C@@]2(C)Oc3c(C)c(O)c4c(O)c(c(/C=N/N5CCN(C)CC5)c(O)c4c3C2=O)NC(=O)/C(C)=C\C=C\[C@H](C)[C@H](O)[C@@H](C)[C@@H](O)[C@@H](C)[C@H](OC(C)=O)[C@@H]1C [Rifampicin, hydrazone of 3-formylrifamycin SV with 1-amino-4-methylpiperazine, reference compound], the Cmax [1] is listed as 13900 ng/mL, the “dwell time in the organism” value [5] is listed as “relatively short dwell time in the organism” and the MIC [2] is listed as 0.03 µg/mL (≈ 0.0365 µM). The antituberculotic activity [6] was “excellent antituberculotic activity”, the Cmax ([3]; plasma) was 24800 ng/mL and the ED50 [4, 7] was 5.9 mg/kg.

In the case of COC1C=COC2(C)Oc3c(C)c(O)c4c(O)c(c(C=NN5CC6CCCCN6CC5C)c(O)c4c3C2=O)NC(=O)C(C)=CC=CC(C)C(O)C(C)C(O)C(C)C(OC(C)=O)C1C (single isomer, unassigned) [Example 5 Isomer A, hydrazone of 3-formylrifamycin SV with 3-amino-2-methylperhydro-1H-pyrido[1,2-a]pyrazine], the half-life [1] was 3510 min, the Cmax ([1]; plasma) was 19700 ng/mL and the “Antituberculotic action, MIC (minimum inhibitory concentration)” value ([2]; listed as 5 Isomer A) was 0.2 µg/mL. For the same compound, the “Cmax (highest concentration of the active ingredient in the blood plasma)” value ([3]; listed as 5 Isomer A) was 15 µg/mL, the “t/2 (half-life period of excretion)” value ([3]; listed as 5 Isomer A) was 69.3 h and the ED50 [4, 7] was 3 mg/kg.

For COC1C=COC2(C)Oc3c(C)c(O)c4c(O)c(c(C=NN5CCN6CCN(C)CC6C5)c(O)c4c3C2=O)NC(=O)C(C)=CC=CC(C)C(O)C(C)C(O)C(C)C(OC(C)=O)C1C (centres unmarked) [Example 9, hydrazone of 3-formylrifamycin SV with 3-amino-6-methylperhydro-1H-pyrazino[1,2-a]pyrazine], the “Antituberculotic action, MIC (minimum inhibitory concentration)” value [2] was 0.1 µg/mL.

With COC1C=COC2(C)Oc3c(C)c(O)c4c(O)c(c(C=NN5CC6CCCCN6CC5C)c(O)c4c3C2=O)NC(=O)C(C)=CC=CC(C)C(O)C(C)C(O)C(C)C(OC(C)=O)C1C (single isomer, unassigned) [Example 5 Isomer B, hydrazone of 3-formylrifamycin SV with 3-amino-2-methylperhydro-1H-pyrido[1,2-a]pyrazine] the “t/2 (half-life period of excretion)” value [1] was 44.7 h, the “Cmax (highest concentration of the active ingredient in the blood plasma)” value [1] was 16.4 µg/mL and the “Antituberculotic action, MIC (minimum inhibitory concentration)” value ([2]; listed as 5 Isomer B) was 0.4 µg/mL. For the same compound, the “Cmax (highest concentration of the active ingredient in the blood plasma)” value ([3]; listed as 5 Isomer B) was 38.8 µg/mL, the “t/2 (half-life period of excretion)” value ([3]; listed as 5 Isomer B) was 66 h and the “Antituberculotic action, ED50” value ([4]; in vivo, mice, p.o., listed as 5 Isomer B) was 2 mg/kg.

With COC1C=COC2(C)Oc3c(C)c(O)c4c(O)c(c(C=NN5CCN6CCCCC6C5)c(O)c4c3C2=O)NC(=O)C(C)=CC=CC(C)C(O)C(C)C(O)C(C)C(OC(C)=O)C1C (centres unmarked) [Example 1] the “t/2 (half-life period of excretion)” value [1] was 17.0 h, the “Cmax (highest concentration of the active ingredient in the blood plasma)” value [1] was 24.5 µg/mL and the “Antituberculotic action, MIC (minimum inhibitory concentration)” value [2] was 0.03 µg/mL. For the same compound, the “t/2 (half-life period of excretion)” value [3] was 20 h, the “Cmax (highest concentration of the active ingredient in the blood plasma)” value [3] was 27.3 µg/mL and the “Antituberculotic action, ED50” value ([4]; in vivo, mice, p.o.) was 0.8 mg/kg.

In the case of CCC1CCC2CN(N=Cc3c4c(O)c5c(O)c(C)c6c(c5c3O)C(=O)[C@@](C)(O/C=C/[C@H](OC)[C@@H](C)[C@@H](OC(C)=O)[C@H](C)[C@H](O)[C@H](C)[C@@H](O)[C@@H](C)/C=C/C=C(/C)C(=O)N4)O6)CCN2C1 (single isomer, unassigned) [Example 4 Isomer A, hydrazone of 3-formylrifamycin SV with 3-amino-7-ethylperhydro-1H-pyrido[1,2-a]pyrazine], the “Antituberculotic action, MIC (minimum inhibitory concentration)” value ([2]; listed as 4 Isomer A) was 0.01 µg/mL, the half-life ([3]; in vivo) was 3310 min and the Cmax ([3]; plasma) was 29500 ng/mL. For the same compound, the ED50 [4, 7] was 0.8 mg/kg.

With CO[C@H]1/C=C/O[C@@]2(C)Oc3c(C)c(O)c4c(O)c(c(C=NN5CCN6C(CCC7CCCCC76)C5)c(O)c4c3C2=O)NC(=O)/C(C)=C\C=C\[C@H](C)[C@H](O)[C@@H](C)[C@@H](O)[C@@H](C)[C@H](OC(C)=O)[C@@H]1C (single isomer, unassigned) [Example 6 Isomer A, hydrazone of 3-formylrifamycin SV with 3-aminoperhydro-1H-pyrazino[1,2-a]quinoline] the “Antituberculotic action, MIC (minimum inhibitory concentration)” value ([2]; listed as 6 Isomer A) was 0.03 µg/mL, the Cmax ([3]; in vivo) was 56300 ng/mL and the half-life ([3]; in vivo) was 2000 min.

With COC1C=COC2(C)Oc3c(C)c(O)c4c(O)c(c(C=NN5CC6CCCCN6CC5C)c(O)c4c3C2=O)NC(=O)C(C)=CC=CC(C)C(O)C(C)C(O)C(C)C(OC(C)=O)C1C (single isomer, unassigned) [Example 5 Isomer C, hydrazone of 3-formylrifamycin SV with 3-amino-2-methylperhydro-1H-pyrido[1,2-a]pyrazine] the “Antituberculotic action, MIC (minimum inhibitory concentration)” value ([2]; listed as 5 Isomer C) was 0.06 µg/mL, the “Cmax (highest concentration of the active ingredient in the blood plasma)” value ([3]; listed as 5 Isomer C) was 23.7 µg/mL and the “t/2 (half-life period of excretion)” value ([3]; listed as 5 Isomer C) was 15 h. The “Antituberculotic action, ED50” value ([4]; in vivo, mice, p.o., listed as 5 Isomer C) was 3 mg/kg.

For CO[C@H]1/C=C/O[C@@]2(C)Oc3c(C)c(O)c4c(O)c(c(C=NN5CCN6C(CCC7CCCCC76)C5)c(O)c4c3C2=O)NC(=O)/C(C)=C\C=C\[C@H](C)[C@H](O)[C@@H](C)[C@@H](O)[C@@H](C)[C@H](OC(C)=O)[C@@H]1C (single isomer, unassigned) [Example 6 Isomer B, hydrazone of 3-formylrifamycin SV with 3-aminoperhydro-1H-pyrazino[1,2-a]quinoline], the “Antituberculotic action, MIC (minimum inhibitory concentration)” value ([2]; listed as 6 Isomer B) was 0.007 µg/mL, the “t/2 (half-life period of excretion)” value [3] was 40.9 h and the “Cmax (highest concentration of the active ingredient in the blood plasma)” value [3] was 34 µg/mL.

In the case of CCC1CCC2CN(N=Cc3c4c(O)c5c(O)c(C)c6c(c5c3O)C(=O)[C@@](C)(O/C=C/[C@H](OC)[C@@H](C)[C@@H](OC(C)=O)[C@H](C)[C@H](O)[C@H](C)[C@@H](O)[C@@H](C)/C=C/C=C(/C)C(=O)N4)O6)CCN2C1 (single isomer, unassigned) [Example 4 Isomer B, hydrazone of 3-formylrifamycin SV with 3-amino-7-ethylperhydro-1H-pyrido[1,2-a]pyrazine], the “Antituberculotic action, MIC (minimum inhibitory concentration)” value ([2]; listed as 4 Isomer B) was 0.03 µg/mL, the “t/2 (half-life period of excretion)” value [3] was 44.6 h and the “Cmax (highest concentration of the active ingredient in the blood plasma)” value [3] was 26.4 µg/mL. For the same compound, the “Antituberculotic action, ED50” value ([4]; in vivo, mice, p.o.) was 1 mg/kg.
